Measured values from patent publication US20130157954A1, “METHODS FOR TREATMENT OR PROPHYLAXIS OF KIDNEY OR LIVER DYSFUNCTION” (NPS PHARMACEUTICALS, INC., priority 2010, published 2013).

Assay: Example 2: liver biomarkers (albumin, gamma glutamyl transferase, total bilirubin, ALT, AST, ALP) in short bowel syndrome patients, every four weeks for 24 weeks; also sorted by >10% change from baseline
Format: in vivo, Human
Conditions: 0.05 mg/kg/d; for Bilirubin: subjects Within 10% of Baseline / Bilirubin: subjects with >10% decrease from Baseline / Bilirubin: subjects with >10% increase from Baseline / ALT: subjects Within 10% of Baseline / ALT: subjects with >10% decrease from Baseline / ALT: subjects with >10% increase from Baseline / AST: subjects Within 10% of Baseline / AST: subjects with >10% decrease from Baseline / AST: subjects with >10% increase from Baseline / Albumin: subjects Within 10% of Baseline / Albumin: subjects with >10% decrease from Baseline / Albumin: subjects with >10% increase from Baseline / Alkaline Phosphatase: subjects Within 10% of Baseline / Alkaline Phosphatase: subjects with >10% decrease from Baseline / Alkaline Phosphatase: subjects with >10% increase from Baseline: m = 40
Experimental: To further confirm the results of Example 1, a further study was conducted involving more individuals and additional diagnostic biomarkers. Human patients with short bowel syndrome were divided into two groups: a control group (43 total individuals) to receive placebo, and an experimental group (42 total individuals) to receive teduglutide at 0.05 mg/kg/day throughout the study. Patients were treated by subcutaneous injection of placebo or the appropriate dose of teduglutide. Known biomarkers of liver function were monitored every four weeks, for 24 weeks. The liver biomarkers tested included albumin, gamma glutamyl transferase, total bilirubin, ALT and AST and ALP. Before administration of placebo or teduglutide, diagnostic biomarker levels were tested to establish a baseline for each individual.
To determine the effect of GLP-2 on the levels of the diagnostic biomarkers, the average level of each biomarker was measured for the placebo and teduglutide treated groups for each visit. Furthermore, the average change from baseline was calculated using the established baseline values. For FIGS. 17-28, p-values were calculated using the t-test.
P values are provided, which were calculated for each distribution of biomarker changes for each week using the chi-squared test.

Structure (SMILES): CC[C@H](C)[C@H](NC(=O)[C@H](Cc1ccccc1)NC(=O)[C@H](CC(=O)O)NC(=O)[C@H](CCCNC(=N)N)NC(=O)[C@H](C)NC(=O)[C@H](C)NC(=O)[C@H](CC(C)C)NC(=O)[C@H](CC(N)=O)NC(=O)[C@H](CC(=O)O)NC(=O)[C@H](CC(C)C)NC(=O)[C@@H](NC(=O)[C@@H](NC(=O)[C@H](CC(N)=O)NC(=O)[C@H](CCSC)NC(=O)[C@H](CCC(=O)O)NC(=O)[C@H](CC(=O)O)NC(=O)[C@H](CO)NC(=O)[C@H](Cc1ccccc1)NC(=O)[C@H](CO)NC(=O)CNC(=O)[C@H](CC(=O)O)NC(=O)CNC(=O)[C@@H](N)Cc1c[nH]cn1)[C@@H](C)O)[C@@H](C)CC)C(=O)N[C@@H](CC(N)=O)C(=O)N[C@@H](Cc1c[nH]c2ccccc12)C(=O)N[C@@H](CC(C)C)C(=O)N[C@H](C(=O)N[C@@H](CCC(N)=O)C(=O)N[C@H](C(=O)N[C@@H](CCCCN)C(=O)N[C@H](C(=O)N[C@H](C(=O)N[C@@H](CC(=O)O)C(=O)O)[C@@H](C)O)[C@@H](C)CC)[C@@H](C)O)[C@@H](C)CC [teduglutide]
- Bilirubin: subjects Within 10% of Baseline (Week 2): 5 (12.5%) n (%)
- Bilirubin: subjects with >10% decrease from Baseline (Week 2): 28 (70.0%) n (%)
- Bilirubin: subjects with >10% increase from Baseline (Week 2): 7 (17.5%) n (%)
- ALT Change from Baseline, Max (Week 4): 29 U/L
- ALT Change from Baseline, Mean (Week 4): −9.2 U/L
- ALT Change from Baseline, Median (Week 4): −7 U/L
- ALT Change from Baseline, Min (Week 4): −44 U/L
- ALT Observed Value, Max (Week 4): 104 U/L
- ALT Observed Value, Median (Week 4): 29 U/L
- ALT Observed Value, Min (Week 4): 8 U/L
- AST Change from Baseline, Max (Week 4): 43 U/L
- AST Change from Baseline, Mean (Week 4): −3.5 U/L
- AST Change from Baseline, Median (Week 4): −5 U/L
- AST Change from Baseline, Min (Week 4): −31 U/L
- AST Observed Value, Max (Week 4): 89 U/L
- AST Observed Value, Min (Week 4): 13 U/L
- Albumin Change from Baseline, Max (Week 4): 5 g/L
- Albumin Change from Baseline, Mean (Week 4): -0.7 g/L
- Albumin Change from Baseline, Median (Week 4): -1 g/L
- Albumin Change from Baseline, Min (Week 4): -7 g/L
- Albumin Observed Value, Max (Week 4): 47 g/L
- Albumin Observed Value, Median (Week 4): 42 g/L
- Albumin Observed Value, Min (Week 4): 34 g/L
- Alkaline Phosphatase Change from Baseline, Max (Week 4): 34 U/L
- Alkaline Phosphatase Change from Baseline, Min (Week 4): −89 U/L
- Alkaline Phosphatase Observed Value, Max (Week 4): 307 U/L
- Alkaline Phosphatase Observed Value, Min (Week 4): 54 U/L
- Bilirubin Change from Baseline, Max (Week 4): 9.0 µmol/L
- Bilirubin Change from Baseline, Mean (Week 4): -1.10 µmol/L
- Bilirubin Change from Baseline, Median (Week 4): -1.5 µmol/L
- Bilirubin Change from Baseline, Min (Week 4): -14.2 µmol/L
- Bilirubin Observed Value, Max (Week 4): 54.0 µmol/L
- Bilirubin Observed Value, Min (Week 4): 3.4 µmol/L
- Gamma Glutamyl Transferase Change from Baseline, Max (Week 4): 105 U/L
- Gamma Glutamyl Transferase Change from Baseline, Mean (Week 4): 1.7 U/L
- Gamma Glutamyl Transferase Change from Baseline, Median (Week 4): −0.5 U/L
- Gamma Glutamyl Transferase Change from Baseline, Min (Week 4): −88 U/L
- Gamma Glutamyl Transferase Observed Value, Max (Week 4): 309 U/L
- Gamma Glutamyl Transferase Observed Value, Min (Week 4): 12 U/L
- ALT: subjects Within 10% of Baseline (Week 4): 8 (20.0%) n (%)
- ALT: subjects with >10% decrease from Baseline (Week 4): 26 (65.0%) n (%)
- ALT: subjects with >10% increase from Baseline (Week 4): 6 (15.0%) n (%)
- AST: subjects Within 10% of Baseline (Week 4): 6 (15.0%) n (%)
- AST: subjects with >10% decrease from Baseline (Week 4): 26 (65.0%) n (%)
- AST: subjects with >10% increase from Baseline (Week 4): 8 (20.0%) n (%)
- Albumin: subjects Within 10% of Baseline (Week 4): 35 (87.5%) n (%)
- Albumin: subjects with >10% decrease from Baseline (Week 4): 3 (7.5%) n (%)
- Albumin: subjects with >10% increase from Baseline (Week 4): 2 (5.0%) n (%)
- Alkaline Phosphatase: subjects Within 10% of Baseline (Week 4): 16 (40.0%) n (%)
- Alkaline Phosphatase: subjects with >10% decrease from Baseline (Week 4): 22 (55.0%) n (%)
- Alkaline Phosphatase: subjects with >10% increase from Baseline (Week 4): 2 (5.0%) n (%)
- Bilirubin: subjects Within 10% of Baseline (Week 4): 7 (17.5%) n (%)
- Bilirubin: subjects with >10% decrease from Baseline (Week 4): 19 (47.5%) n (%)
- Bilirubin: subjects with >10% increase from Baseline (Week 4): 14 (35.0%) n (%)
- ALT Change from Baseline, Max (Week 8): 20 U/L
- ALT Change from Baseline, Median (Week 8): −5.5 U/L
- ALT Change from Baseline, Min (Week 8): −65 U/L
- ALT Observed Value, Max (Week 8): 138 U/L
- ALT Observed Value, Median (Week 8): 26 U/L
- ALT Observed Value, Min (Week 8): 9 U/L
- AST Change from Baseline, Max (Week 8): 17 U/L
- AST Change from Baseline, Mean (Week 8): −5.1 U/L
- AST Change from Baseline, Median (Week 8): −5 U/L
- AST Change from Baseline, Min (Week 8): −46 U/L
- AST Observed Value, Max (Week 8): 63 U/L
- AST Observed Value, Min (Week 8): 8 U/L
- Albumin Change from Baseline, Max (Week 8): 4 g/L
- Albumin Change from Baseline, Mean (Week 8): -0.7 g/L
- Albumin Change from Baseline, Median (Week 8): -1 g/L
- Albumin Change from Baseline, Min (Week 8): -5 g/L
- Albumin Observed Value, Max (Week 8): 48 g/L
- Albumin Observed Value, Median (Week 8): 42 g/L
- Albumin Observed Value, Min (Week 8): 36 g/L
- Alkaline Phosphatase Change from Baseline, Max (Week 8): 19 U/L
- Alkaline Phosphatase Change from Baseline, Min (Week 8): −105 U/L
- Alkaline Phosphatase Observed Value, Max (Week 8): 341 U/L
- Alkaline Phosphatase Observed Value, Median (Week 8): 94 U/L
- Alkaline Phosphatase Observed Value, Min (Week 8): 46 U/L
- Bilirubin Change from Baseline, Max (Week 8): 6.8 µmol/L
- Bilirubin Change from Baseline, Mean (Week 8): -1.60 µmol/L
- Bilirubin Change from Baseline, Median (Week 8): -0.95 µmol/L
- Bilirubin Change from Baseline, Min (Week 8): -14.9 µmol/L
- Bilirubin Observed Value, Max (Week 8): 61.8 µmol/L
- Bilirubin Observed Value, Min (Week 8): 3.4 µmol/L
- Gamma Glutamyl Transferase Change from Baseline, Max (Week 8): 77 U/L
- Gamma Glutamyl Transferase Change from Baseline, Mean (Week 8): −5.7 U/L
- Gamma Glutamyl Transferase Change from Baseline, Median (Week 8): −5.5 U/L
- Gamma Glutamyl Transferase Change from Baseline, Min (Week 8): −145 U/L
- Gamma Glutamyl Transferase Observed Value, Max (Week 8): 281 U/L
- Gamma Glutamyl Transferase Observed Value, Median (Week 8): 46 U/L
- Gamma Glutamyl Transferase Observed Value, Min (Week 8): 6 U/L
- ALT: subjects Within 10% of Baseline (Week 8): 7 (17.5%) n (%)
- ALT: subjects with >10% decrease from Baseline (Week 8): 26 (65.0%) n (%)
- ALT: subjects with >10% increase from Baseline (Week 8): 7 (17.5%) n (%)
- AST: subjects Within 10% of Baseline (Week 8): 8 (20.0%) n (%)
- AST: subjects with >10% decrease from Baseline (Week 8): 24 (60.0%) n (%)
- AST: subjects with >10% increase from Baseline (Week 8): 8 (20.0%) n (%)
- Albumin: subjects Within 10% of Baseline (Week 8): 38 (95.0%) n (%)
- Albumin: subjects with >10% decrease from Baseline (Week 8): 1 (2.5%) n (%)
- Albumin: subjects with >10% increase from Baseline (Week 8): 1 (2.5%) n (%)
- Alkaline Phosphatase: subjects Within 10% of Baseline (Week 8): 13 (32.5%) n (%)
- Alkaline Phosphatase: subjects with >10% decrease from Baseline (Week 8): 25 (62.5%) n (%)
- Alkaline Phosphatase: subjects with >10% increase from Baseline (Week 8): 2 (5.0%) n (%)
